The record followed here is a melting point compilation (Tetko et al.; mined from patent text by program, amines drawn as free bases though some values may be those of a salt).

Consider `CON=Cc1cc(-n2c(=S)cc(C(F)(F)F)n(N)c2=O)c(F)cc1Cl`, for which the melting point (as a rule, the temperature of the solid-liquid transition) was 172 to 174 °C. `COc1cc(-c2cccc(Cl)c2)c2cc(C(O)(c3ccc(Cl)cc3)c3nncn3C)ccc2n1` (stereo unspecified) yielded a melting point of 155 °C. In turn, `Cc1oc(-c2ccc3ccccc3c2)nc1COc1ccc(CCCC2OCCO2)cc1` displayed a melting point of 141 to 142 °C. Molecule `Nc1ccn(C2CCCO2)c(=O)n1` (stereo unspecified) returned a melting point of 193 to 195 °C. The result for `Cc1cc2c(cc1Cl)C(c1ccccc1)(N1CCOCC1)ON2C(C)(C)C` (stereo unspecified) reads 131 to 133 °C; that for `CCc1ccc2c(c1)c1cc(OC)cc3c(=O)c(Cc4cccnc4)cn2c31`, 109 to 110 °C. The result for `NP(N)(=O)NC(=O)c1cccc([N+](=O)[O-])c1` reads 168 to 172 °C. To `N#Cc1sc(N)c(C#N)c1N1CCCCC1` belongs 183 to 184 °C; to `O=C(Nc1ccccc1)c1cccc(-c2ccnc3c(C(=O)c4cccs4)cnn23)c1`, 211 to 212 °C. `N#CCc1cc(I)cc(Cc2nc3c(F)c(F)cc(F)c3s2)c1` showed a melting point of 127 to 130 °C. The result for `CCNC(=O)C1OC(n2cnc3c(NCc4ccc(O)cc4)ncnc32)C(O)C1O` (stereo unspecified) reads 180 °C; that for `CCCCOc1ccc2[nH]c(C(=O)O)cc2c1`, 153 °C.

The molecule `N#Cc1ccc(CN2CC=C(/C=C/c3ccccc3)CC2)cc1` displayed a melting point of 155 to 157 °C. The result for `CCOC(=O)c1cc(Br)cc2c(=O)cc(-c3cccc(OCc4nc5ccccc5s4)c3)oc12` reads 250 to 251 °C; that for `COC(=O)C#CCOC(N)=O`, 113 to 114 °C; that for `CCOC(=O)c1c(Cl)nn(-c2c(Cl)cc(C(F)(F)F)cc2Cl)c1N`, 143 to 146 °C. To `O=C(CC(=O)C(F)(F)F)c1ccc(-c2ccco2)cc1` belongs 157 °C; to `O=C(O)CCCSc1ccc(C(=O)O)cn1`, 185 °C; to `c1ccc(Oc2ccc(N3CCNCC3)nc2)cc1`, 80.5 to 83 °C.

`C=C(F)C(C)(C)C(=O)Nc1ccc(Cl)cc1` came in with a melting point of 75 to 76 °C. To `CCOC(=O)C=C(C)NC(=O)Nc1cc(C(=O)OC(C)C)c(Cl)cc1F` belongs 147 to 150 °C; to `O=C(Nc1ccc(S(=O)(=O)c2ccccc2)cc1)C1(O)CCCC1`, 214 to 216 °C. To `COc1cc(Cn2c(=S)sc3ccccc32)cc(OC)c1O` belongs 141 to 142 °C.

In turn, `CC1CC(NC(=O)C(F)(F)F)=NN1c1ccc(Cl)cc1` (stereo unspecified) registered a melting point of 170 to 172 °C. As to `NC(=O)c1c(Cl)c(-c2ccccc2)n2c1CN(C(=O)c1ccc(-c3ccccn3)s1)CC2`, the melting point amounted to 232 °C. Turning to `O=C(O)c1cccc(CN2CCN(c3ccc(NC(=O)c4ccccc4-c4ccc(C(F)(F)F)cc4)cc3)CC2)c1`, the melting point fell in the range of 225 to 227 °C. To `CN(C)C(=O)C1=C(C(=O)Nc2ccc(Cl)cc2)CCCC1` belongs 125 °C.

`CCN(CC)CCNc1ccc2c3c(nn2CCN(CC)CC)-c2c(O)ccc(O)c2C(=O)c13`: the melting point was 152 °C.

For the molecule `COc1cc2c(cc1OC)C(C(CO)CO)N(C(=O)Nc1ccccc1)CC2` (stereo unspecified), the melting point was in the range of 191 to 192 °C. To `CNC(=O)N(O)C(C)c1ccc(OC)cc1` (stereo unspecified) belongs 102 to 104 °C. The result for `CCOC(=O)c1ccc(Br)c(OCC)c1N(CC)S(C)(=O)=O` reads 43 to 45 °C. To `Cc1cc(Oc2nn(C)c(C(F)(F)F)c2Cl)ccc1[N+](=O)[O-]` belongs 72 to 73.5 °C; to `CCOCc1c(-c2ccc(OC(F)F)c(OC3CC3)c2)[nH]c2cn[nH]c(=O)c12`, 141 to 143 °C. `CCCOc1cc(OCCC)c2c(C)c(CCO)c(=O)oc2c1` registered a melting point of 106 to 108 °C. `CC(C)n1nc(-c2sc(NCc3ccccc3)nc2-c2ccccc2)ccc1=O`: the melting point fell in the range of 157 to 158 °C.

Turning to `Cn1cnc2nc(-c3ccc(Cl)cn3)nn2c1=S`, the melting point was above 300 °C.

On to `NC(=O)C1C(CSSCC2C(C(N)=O)N(Cc3ccccc3)C(=O)N2Cc2ccccc2)N(Cc2ccccc2)C(=O)N1Cc1ccccc1` (stereo unspecified), for which the melting point fell in the range of 208 to 211 °C.

In turn, `Nc1ccc2c(C(F)(F)F)cc(C(F)(F)F)nc2n1` gave a melting point of 198 to 204 °C.

Molecule `O=C(Nc1ccccn1)Nc1cccc2c1C1CC(O)CCN1C2=O` (stereo unspecified) registered a melting point of 220 °C. The result for `CCNC(=O)Oc1cc2c(cc1Cl)CCN(C)C[C@H]2c1ccccc1` reads 133 to 134 °C; that for `N#Cc1cc(F)c(N)cc1Oc1ccc2ccccc2c1`, 89 °C.

The molecule `COc1ccc(C2C(C(=O)O)C2(C)C)cc1` (stereo unspecified) returned a melting point of 115 °C.

Molecule `CCOC(=O)c1ncc2[nH]c3ccc(C(C)OC)cc3c2c1C` (stereo unspecified) returned a melting point of 96 to 97 °C. The result for `Cc1ccccc1C(=O)Nc1ccc(C(=O)N2CCCC(NC=O)c3ccccc32)cc1` (stereo unspecified) reads 211 to 213 °C; that for `CCN(CC)C(=O)COC(=O)CCNC(=O)[C@H](Cc1ccc(-c2ccccc2)cc1)NCP(=O)(Oc1ccccc1)Oc1ccccc1`, 68 to 74 °C. Regarding `COc1cc(Oc2ccc(S(C)(=O)=O)nc2)cc2cc(C3=NCC(CC(N)=O)S3)[nH]c12` (stereo unspecified), the melting point was in the range of 225 to 227 °C.

Regarding `O=c1c2ccccc2nc(CCl)n1-c1cccc(Cl)c1`, the melting point lay within 202 to 205 °C. To `CN(C)C=C1CCCc2cc(N3C[C@H](CNC(=O)OC(C)(C)C)OC3=O)ccc2C1=O` belongs 157 to 160 °C; to `O=C(O)c1ccc(C(=O)O)c2c(C(O)=Nc3ccccc3)ccc(C(=O)O)c12`, above 300 °C. The result for `COc1ccc(-c2cc(C(Nn3cnnc3)c3ccccc3OS(N)(=O)=O)ccc2C#N)cc1` (stereo unspecified) reads 184 to 186 °C; that for `C=CCOc1c(Cl)cc(C2=NNC(=O)CC2)cc1Cl`, 137 °C; that for `Cc1ccc(S(=O)(=O)N(c2ccc(Cl)cc2[N+](=O)[O-])C(C)C)cc1`, 112 to 114 °C.

Molecule `COc1ccc2c(CN(C)C)cc(=O)oc2c1` showed a melting point of 97 °C. The result for `O=[N+]([O-])c1ccc(NCCSCc2c[nH]cn2)nc1` reads 145 to 147 °C; that for `CC(=CCc1c(C)nc(N)nc1Cl)c1cc(Cl)ccc1Cl`, 97 to 100 °C; that for `O=C(O)c1cc(SCCO)ccc1O`, 136 °C. The molecule `CC(C)(CNc1ccnc2cc(Cl)ccc12)NCc1cccc(C(F)(F)F)c1` displayed a melting point of 156 to 157 °C. For the molecule `Cc1nc(Cl)c2n1-c1ccccc1C(c1ccccc1F)N(C)C2` (stereo unspecified), the melting point was in the range of 156 to 158 °C.

Regarding `CCC1(CC)c2cc(-c3ccc4c(c3)C(CC)(CC)c3cc(N(c5ccccc5)c5ccccc5)ccc3-4)ccc2-c2ccc(-c3nc4ccccc4s3)cc21`, the melting point is 217 to 218 °C.

The molecule `CCc1ccccc1C=CC=C1SC(=S)N(CC(=O)O)C1=O` came in with a melting point of 161 to 183 °C. The molecule `Cc1ccc(-c2csc(/C=C/C(=O)O)c2)cc1` gave a melting point of 206 to 207 °C.

As for `Cc1ccc(S(=O)(=O)NC2(C)c3ccccc3C=Cc3ccccc32)cc1`, the melting point is 175 to 178 °C. For `Cn1c(Nc2cc(C(F)(F)F)ccc2C(F)(F)F)nc(C(F)(F)F)cc1=O`, the melting point lay in the range of 155 to 156 °C.

The molecule `CN(c1cccc2cc(C3=NCC(CN4CCS(=O)CC4)S3)[nH]c12)S(=O)(=O)c1ccccn1` (stereo unspecified) displayed a melting point of 193 to 194 °C. In turn, `Cn1cc(CO)c(=O)c2cccc(F)c21` returned a melting point of 206 to 210 °C. With `c1ccc(COc2cc3cc(-c4ccccc4)[nH]c3cc2OCc2ccccc2)cc1`, the melting point lay within 140 to 141 °C.

The molecule `CCCCCNC(=O)N(C)c1cccc(-c2ccc(CCC(=O)O)cc2)c1` returned a melting point of 100 to 102 °C. The result for `C#Cc1ccc2c(c1)C(CCOCCOCCOC)(CCOCCOCCOC)c1cc(C#C)ccc1-2` reads 68 °C. In the case of `O=C1c2ccccc2C(=O)N1CCCCCCSc1ccc2ccccc2c1`, the melting point is 109 to 110 °C. In turn, `CN(C)C1CCN(c2nc(N3CCOCC3)c3ncnc(N(CCCN)Cc4ccccc4)c3n2)CC1` came in with a melting point of 102 to 105 °C. On to `O=c1c(-c2ccccc2)c[nH]nc1-c1ccccc1`, for which the melting point lay within 328 to 332 °C. Regarding `O=C(NCC12CC3CC(CC(C3)C1)C2)c1cc(-c2nccnc2N2CCC(C(=O)O)CC2)ccc1Cl`, the melting point lay in the range of 136 to 140 °C. For the molecule `CCCNC(=O)COC1C(O)C(CO)OC(Oc2ccc(N)cc2)C1O` (stereo unspecified), the melting point amounted to 154 °C.

`COc1ccc(C(=O)Nc2ccccc2)cc1NC(=S)Nc1cccnc1` came in with a melting point of 178 to 179 °C. To `Cn1c(=O)ccc2cnc(Nc3ccccc3)nc21` belongs 244 to 247 °C; to `Nc1ncnc2c1c(-c1cccc(F)c1)nn2Cc1oc2ccccc2c(=O)c1-c1ccccc1`, 244 to 247 °C. To `COc1cc2cnc3c(c2cc1OC)Cc1c-3cc2c(c1CN(C)C)OCO2` belongs 205 to 207 °C. `CC(C)(C)c1ccc(C(O)CCCN2CCC(=C3c4ccccc4COc4ccccc43)CC2)cc1` (stereo unspecified): the melting point was 160 to 161 °C. Regarding `CN[C@@H]1Cc2ccccc2[C@H]1Nc1ccccc1CO` (relative stereo), the melting point is 113 to 114 °C. In turn, `CCN(C)C(=N)N[N+](=O)[O-]` displayed a melting point of 124 to 125 °C. `N#Cc1c(N2CCc3ccccc3CC2)nc(CC(N)=O)[nH]c1=O` came in with a melting point above 200 °C.

In turn, `CCOC(=O)c1c(CCCCn2cncn2)nc2sc3c(c2c1-c1ccc(OC)c(OC)c1)CCN(C(=O)c1ccc(Cl)cc1)C3` yielded a melting point of 165 to 166 °C. `CCCc1c(OCCC2Cc3cc(CC(=O)OC)ccc3O2)ccc(C(C)=O)c1O` (stereo unspecified) registered a melting point of 59 to 60 °C.

Consider `CCn1ncc2c(-c3cncc(C)c3)c(CCC(=O)O)c(-c3ocnc3C)nc21`, for which the melting point fell in the range of 184 to 186 °C. To `COc1ccc(C)cc1NC(=O)Nc1ccc(N2CCN(C(=O)Nc3c(CO)cccc3C(F)(F)F)CC2)cc1` belongs 139 to 140 °C; to `Cc1cc(-c2nc3cc(NC(=O)c4c(C(=O)N5CCC5)cnn4C)ccn3n2)ccn1`, 210 to 211 °C.
